Where a SMILES comes first, the peptide text is derived from it. The star is where a group is joined. Bz = O=C(c1ccccc1)*
Tests used:
[1] = tested on: serum angiotensin converting enzyme; assay: Serum angiotensin converting enzyme assay with angiotensin I as substrate; format: biochemical, human
Method: Three mg of angiotensin I were dissolved in 10 ml buffer, 0.03125 M NaCl and 0.104 M potassium phosphate, pH 7.5. The optical density (O.D.) of the solution at 275 nM was measured against the buffer. The O.D. of the angiotensin I solution was adjusted to 0.272 by either adding more buffer or solid angiotensin I. Based on a mMolar extintion coefficient of 1.31 at 275 nM, the final concentration in the assay was 0.2 mM angiotensin I which is about 4-5 times the Km of this enzyme previously measured. Two hundred forty μl of the angiotensin I solution were added to each tube, then warmed to 37° C. […] of serum were added to each tube, sealed and incubated for 1 hour. […]
For fluorescence development, 100 μl of 2% o-phthaldialdehyde in methanol were added to each tube and mixed with a vortex mixer. […] The fluorescence was read in a 1 cm rectangular fluorescence cuvette in a Perkin-Elmer MPF-4 fluorimeter with a 4 mm entrance and 8 mm exit slit and a 7.5 V energy output between 30-90 minutes after the addition of HCl, during which time the fluorescence was stable. The excitation wavelength was […] and the emission fluorescence wavelength was […].
Calculation of enzymatic activity in nmoles L-histidyl-L-leucine released/min/ml of serum was calculated as follows: Angiotensin converting enzyme activity, nmole his-leu released/min/ml serum = [formula]

[2] = target: serum angiotensin-converting enzyme (Homo sapiens, UniProt P12821); assay: Spectrofluorimetric serum angiotensin converting enzyme assay with hippuryl-L-histidyl-L-leucine substrate; format: biochemical; settings: FIG. 2
Method: Substrate-buffer solution was prepared by mixing buffer, substrate and water at a ratio of 1:1:2.8 (final concentration in the assay mixture; 0.1M K phosphate, pH 8.3, 0.3M NaCl; 5mM hippuryl-L-histidyl-L-leucine).
Ten μl of serum was added to 240 μl of substrate-buffer solution at 37° C. in a 12 × 75 mm test tube tightly covered with Parafilm, mixed with a vortex mixer and incubated for 15 minutes at 37° C. Duplicate reaction mixtures were stopped by addition of 1.45 ml of 0.28 M NaOH and mixing with a vortex mixer. […] In order to keep the blank low, the development of fluorescence should be started as soon as possible after the addition of NaOH.
One hundred μl of o-phthaldialdehyde reagent was added to each tube which was mixed with a vortex mixer. […] The fluorescence was read in a 1 cm rectangular fluorescence cuvette in a Perkin-Elmer MPF-4 fluorimeter with 8 mm entrance and exit slits and a 7.5 V energy output between 30 and 90 minutes after addition of HCl, during which time it was stable. The excitation wavelength was 360 nm and the emission fluorescence wavelength was 500 nm.
Enzyme activity in nmoles L-histidyl-L-leucine/min/ml serum was calculated by two methods. The first is applicable for ratios of up to 2 of corrected assay/standard fluorescence. […]

[3] = Apparent hydrolysis of hippuryl-L-histidyl-L-leucine in NaOH; format: physicochemical; settings: 30 minutes between NaOH addition and fluorescence development
Method: Ten μl of serum was added to 240 μl of substrate-buffer solution at 37° C. in a 12 × 75 mm test tube tightly covered with Parafilm, mixed with a vortex mixer and incubated for 15 minutes at 37° C. Duplicate reaction mixtures were stopped by addition of 1.45 ml of 0.28 M NaOH and mixing with a vortex mixer. A substrate-buffer blank was similarly treated at the same time except that enzyme was added immediately after NaOH, and was an important control for the slow breakdown of hippuryl-L-histidine-L-leucine in NaOH. In order to keep the blank low, the development of fluorescence should be started as soon as possible after the addition of NaOH.
When large quantities of enzyme were used, this effect was small compared to the total fluorescence developed. However, the increase in fluorescence intensity of the blank in 30 minutes was equivalent to 1.3 nmol/min/ml and would result in a value 4% below the true one for an enzyme activity of 34 nmol/min/ml, which is in the normal range. To avoid spuriously high blanks due to base catalyzed hydrolysis, addition of NaOH to the blank, followed by enzyme, was made at the same time that NaOH was added to terminate the enzymatic reaction of the reacted samples.

[4] = tested on: angiotensin converting enzyme of rabbit lung; settings: rabbit lung enzyme system; Cushman and Cheung 1971; cited from earlier work
[5] = tested on: L-histidyl-L-leucine peptidase; assay: Hydrolysis of L-histidyl-L-leucine by human serum peptidase, fluorimetric; format: biochemical; settings: estimated from 1/v-1/S plots
Method: Hydrolysis of the product L-histidyl-L-leucine was determined fluorimetrically by adding L-histidyl-L-leucine to an assay mixture which contained buffer and serum and was handled as described for the enzyme assays, including a zero time control. Hydrolysis was accompanied by a decrease in fluorescence from that obtained with the initial concentration as determined in the zero time control. The quantity hydrolyzed was determined by multiplying the fraction hydrolyzed (decrease in FI/initial FI) by the initial concentration. No correction was made for the fluorescence of L-histidine since it was only about 8% of the fluorescence of L-histidyl-L-leucine.
The activity of the L-histidyl-L-leucine hydrolyzing activity was measured in several sera under the conditions of the orginal assay (50 μl sera in 125 μl 0.1 M K phosphate-0.3 M NaCl, pH 8.3) using as substrate 0.2 mM L-histidyl-L-leucine, a concentration typically formed in the angiotensin converting enzyme reaction mixture. […] The velocity of the L-histidyl-L-leucine peptidase reaction was determined at varying L-histidyl-L-leucine concentrations. The Km for L-histidyl-L-leucine of the peptidase was estimated from l/.nu.-l/S plots, see Lineweaver, H. and Burk, D. (1934). J. Amer. Chem. Soc. 56, 658, to be 0.16 mM. […]

[6] = tested on: porcine lung L-histidyl-L-leucine peptidase; settings: Lee, Larue and Wilson 1971; cited from earlier work

serum angiotensin-converting enzyme, sequence (P12821 30-1232): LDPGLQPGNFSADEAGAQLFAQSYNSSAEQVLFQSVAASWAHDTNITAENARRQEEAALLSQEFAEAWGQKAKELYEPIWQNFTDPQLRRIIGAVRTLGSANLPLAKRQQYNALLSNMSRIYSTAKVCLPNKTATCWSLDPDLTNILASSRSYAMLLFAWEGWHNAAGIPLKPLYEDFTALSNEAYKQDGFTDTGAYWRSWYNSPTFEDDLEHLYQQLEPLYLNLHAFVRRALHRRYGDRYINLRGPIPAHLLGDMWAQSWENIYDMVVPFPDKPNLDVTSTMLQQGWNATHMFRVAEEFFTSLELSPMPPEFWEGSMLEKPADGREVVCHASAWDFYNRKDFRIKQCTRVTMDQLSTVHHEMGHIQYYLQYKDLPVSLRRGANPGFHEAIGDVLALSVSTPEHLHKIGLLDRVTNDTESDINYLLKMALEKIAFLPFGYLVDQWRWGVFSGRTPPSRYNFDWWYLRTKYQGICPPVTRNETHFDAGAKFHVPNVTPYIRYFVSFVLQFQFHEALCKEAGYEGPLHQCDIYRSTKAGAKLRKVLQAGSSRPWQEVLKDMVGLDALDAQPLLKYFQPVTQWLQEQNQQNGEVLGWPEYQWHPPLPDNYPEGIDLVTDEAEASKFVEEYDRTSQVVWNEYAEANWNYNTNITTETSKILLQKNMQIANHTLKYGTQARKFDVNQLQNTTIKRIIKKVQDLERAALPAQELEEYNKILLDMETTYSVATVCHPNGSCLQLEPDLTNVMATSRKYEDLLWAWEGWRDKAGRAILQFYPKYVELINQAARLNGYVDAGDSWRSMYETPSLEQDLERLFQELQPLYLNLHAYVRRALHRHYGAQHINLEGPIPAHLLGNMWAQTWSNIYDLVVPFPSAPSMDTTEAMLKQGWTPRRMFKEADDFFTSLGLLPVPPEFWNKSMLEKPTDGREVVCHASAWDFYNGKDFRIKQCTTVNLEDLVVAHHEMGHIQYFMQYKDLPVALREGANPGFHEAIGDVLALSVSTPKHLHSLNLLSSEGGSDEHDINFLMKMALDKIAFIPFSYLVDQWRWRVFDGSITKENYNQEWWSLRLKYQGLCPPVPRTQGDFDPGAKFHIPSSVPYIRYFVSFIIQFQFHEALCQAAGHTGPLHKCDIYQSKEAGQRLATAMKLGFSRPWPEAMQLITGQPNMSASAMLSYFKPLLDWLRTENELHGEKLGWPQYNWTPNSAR

In the case of “angiotensin I (DRVYIHPFHL; Angiotensin-1; UniProt P01019 25-34, looked up) [decapeptide natural substrate of angiotensin converting enzyme]”, the “Activity as substrate compared with hippuryl-L-histidyl-L-leucine” value [1] was “considerably lower”.
In the case of `CC(C)C[C@H](NC(=O)[C@H](Cc1c[nH]cn1)NC(=O)CNC(=O)c1ccccc1)C(=O)O` [hippuryl-L-histidyl-L-leucine, Hippuryl-L-histidyl-L-leucine] (Bz-Gly-His-Leu-OH), the “Substrate concentration at maximum activity” value [2] was 5 mM, the “Substrate concentration at which inhibition was noted” value [2] was 15 mM and the “Increase in fluorescence intensity of the blank, as equivalent enzyme activity (base-catalyzed hydrolysis)” value [3] was 1.3 nmol/min/mL. For the same compound, the Km [4] was 2600 µM and the “Substrate concentration above which inhibition was present” value [4] was “above 10 mM”.
For `CC(C)C[C@H](NC(=O)[C@@H](N)Cc1c[nH]cn1)C(=O)O` [L-histidyl-L-leucine] (H-His-Leu-OH), the Km [5] is given as 160 µM and the Km [6] is given as 200 µM.

Source: patent US4108726A, “Sarcoidosis test” (Research Corporation, priority 1976, dated 1978)
